Results as given in patent US20160257697A1, “THIOPHENE-SUBSTITUTED TETRACYCLIC COMPOUNDS AND METHODS OFUSE THEREOF FOR THE TREATMENT OF VIRAL DISEASES” (priority 2013, published 2016).
Like-named read-outs stand apart in the source and are kept apart here.

Experiments:
Assay in all cases: microbe, parasite or virus in culture
Assay type in all cases: cell-based, Hepatitis C virus (HCV)
HCV replicon 1AY93H = settings: Replicon Assay A
Method in brief: (§1)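 HCV replicon RNA levels were quantified by TaqMan RT-PCR after 3-day compound exposure (0.5% DMSO, 5% FBS). Cyclophilin RNA, co-amplified in the same reaction, served as endogenous control; Ct values were converted to RNA amounts using linear regression standard curves.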

HCV replicon 1A = settings: Replicon Assay A
Method in brief: as §1

HCV replicon 2B = settings: Replicon Assay A
Method in brief: as §1

HCV replicon 1B = settings: Replicon Assay B
HCV replicon 1AQ30D = settings: Replicon Assay B
[1] = read-out: 1A Y93H IC50, replicon 1AY93H
[2] = Hepatitis C virus, read-out: 1A Q30D IC50 (nM), replicon 1AQ30D
[3] = read-out: 1A Y93H IC50, HCV replicon 1A Y93H
[4] = read-out: 2B IC50, HCV replicon 2B
[5] = read-out: 1A Q30D IC50, HCV replicon 1A Q30D
[6] = read-out: 1A Q30D IC50, replicon 1AQ30D
[7] = Hepatitis C virus, HCV replicon 1A
[8] = Hepatitis C virus, HCV replicon 1B
[9] = Hepatitis C virus, read-out: 1A Q30D IC50, HCV replicon 1A Q30D
[10] = Hepatitis C virus, read-out: 1A Y93H IC50 (nM), replicon 1AY93H
[11] = Hepatitis C virus, read-out: 2B IC50 (nM), replicon 2B

SMILES | IC50 (HCV replicon 1AY93H; [1]) [nM] | IC50 (HCV replicon 2B; read-out: 2B IC50, replicon 2B) [nM] | IC50 (HCV replicon 1B; Hepatitis C virus, replicon 1B) [pM] | IC50 (HCV replicon 1AQ30D; [2]) [nM] | IC50 (HCV replicon 1A; replicon 1A) [pM] | IC50 (HCV replicon 1AY93H; [3]) [nM] | IC50 (HCV replicon 2B; [4]) [nM] | also measured
COC(=O)NC(C(=O)N1[C@@H]2C[C@@H]2C[C@H]1c1ncc(-c2ccc3c(c2)cc2n3C(c3ccc(C4CC4)s3)Oc3cc(-c4cnc([C@@H]5CCCN5C(=O)[C@@H](NC(=O)OC)C(C)C)[nH]4)cc(F)c3-2)[nH]1)C1CCOC(C)(C)C1 (single isomer, unassigned) [Compound 276] | 0.001 | 0.005 | 2.4 | 0.018 | – | – | – | IC50 (HCV replicon 1A; Hepatitis C virus, replicon 1A): 1.5 pM
COC(=O)N[C@H](C(=O)N1CCC[C@H]1c1ncc(-c2cc(F)c3c(c2)OC(c2ccc(CCF)s2)n2c-3cc3cc(-c4cnc([C@@H]5CCCN5C(=O)[C@@H](NC(=O)OC)C(C)C)[nH]4)ccc32)[nH]1)C(C)C (single isomer, unassigned) [Compound 44] | 0.012 | 0.1 | 1.2 | 0.54 | 1.5 | – | – | –
COC(=O)NC(C(=O)N1[C@@H]2C[C@@H]2C[C@H]1c1ncc(-c2ccc3c(c2)cc2n3C(c3ccc(CC4CC4)s3)Oc3cc(-c4cnc([C@@H]5CCCN5C(=O)[C@@H](NC(=O)OC)C(C)C)[nH]4)cc(F)c3-2)[nH]1)C1CCOC(C)(C)C1 (single isomer, unassigned) [Compound 417] | – | – | – | – | – | 0.119 | 0.0098 | IC50 (HCV replicon 1A; HCV replicon 1A): 3.4 pM; IC50 (HCV replicon 1B; HCV replicon 1B): 6 pM; IC50 (HCV replicon 1AQ30D; [5]): 0.0738 nM
COC(=O)N[C@H](C(=O)N1CCC[C@H]1c1ncc(-c2cc(F)c3c(c2)OC(c2ccc(CC4CC4)s2)n2c-3cc3cc(-c4cnc([C@@H]5CCCN5C(=O)[C@@H](NC(=O)OC)C5CCOCC5)[nH]4)ccc32)[nH]1)C(C)C (single isomer, unassigned) [Compound 357] | 0.0041 | 0.0026 | – | – | 2.1 | – | – | IC50 (HCV replicon 1B; replicon 1B): 3 pM; IC50 (HCV replicon 1AQ30D; [6]): 0.0165 nM
COC(=O)N[C@H](C(=O)N1CCC[C@H]1c1ncc(-c2cc(F)c3c(c2)OC(c2ccc(C#N)s2)n2c-3cc3cc(-c4cnc([C@@H]5CCCN5C(=O)[C@@H](NC(=O)OC)C(C)C)[nH]4)ccc32)[nH]1)C(C)C (single isomer, unassigned) [Compound 17] | 0.19 | 0.54 | 2.1 | – | – | – | – | IC50 (HCV replicon 1A; Hepatitis C virus, replicon 1A): 2.6 pM; IC50 (HCV replicon 1AQ30D; [6]): 2.91 nM
CCc1ccc(C2Oc3cc(-c4cnc([C@@H]5CCCN5C(=O)[C@@H](NC(=O)OC)C(C)C)[nH]4)cc(C)c3-c3cc4cc(-c5cnc([C@@H]6CCCN6C(=O)[C@@H](NC(=O)OC)C6CCOCC6)[nH]5)ccc4n32)s1 (single isomer, unassigned) [Compound 560] | – | – | – | – | – | – | – | IC50 (HCV replicon 1AY93H; Hepatitis C virus, read-out: 1A Y93H IC50, HCV replicon 1A Y93H): 0.13 nM; IC50 (HCV replicon 1A; [7]): 7.1 pM; IC50 (HCV replicon 2B; Hepatitis C virus, read-out: 2B IC50, HCV replicon 2B): 0.0516 nM; IC50 (HCV replicon 1B; [8]): 9.93 pM; IC50 (HCV replicon 1AQ30D; [9]): 1.56 nM
COC(=O)N[C@H](C(=O)N1CCC[C@H]1c1nc(-c2cc(F)c3c(c2)OC(c2ccc(C4CC4)s2)n2c-3cc3cc(-c4cnc([C@@H]5CCCN5C(=O)[C@@H](NC(=O)OC)C5C[C@@H](C)O[C@@H](C)C5)[nH]4)ccc32)c[nH]1)C(C)C (stereo partly shown) [Compound 190] | – | – | 1.4 | 0.013 | – | – | – | IC50 (HCV replicon 1AY93H; [10]): 0.002 nM; IC50 (HCV replicon 1A; Hepatitis C virus, replicon 1A): 1.1 pM; IC50 (HCV replicon 2B; [11]): 0.003 nM
COC(=O)N[C@H](C(=O)N1CCC[C@H]1c1ncc(-c2cc(F)c3c(c2)OC(c2ccc(C(C)C)s2)n2c-3cc3cc(-c4cnc([C@@H]5CCCN5C(=O)[C@@H](NC(=O)OC)C(C)C)[nH]4)ccc32)[nH]1)C(C)C (single isomer, unassigned) [Compound 36] | – | – | – | – | 1.7 | – | – | IC50 (HCV replicon 1AY93H; replicon 1AY93H, read-out: 1A Y93H IC50): 0.006 nM; IC50 (HCV replicon 2B; replicon 2B, read-out: 2B IC50): 0.053 nM; IC50 (HCV replicon 1B; replicon 1B): 1.1 pM; IC50 (HCV replicon 1AQ30D; replicon 1AQ30D, read-out: 1A Q30D IC50): 0.19 nM
COC(=O)NC(C(=O)N1CCC[C@H]1c1ncc(-c2ccc3c(c2)cc2n3C(c3cc4nccnc4s3)Oc3cc(-c4cnc([C@@H]5CCCN5C(=O)[C@@H](NC(=O)OC)C(C)C)[nH]4)cc(F)c3-2)[nH]1)C1C[C@@H](C)O[C@@H](C)C1 (single isomer, unassigned) [Compound 372] | 0.0051 | 0.0064 | 3.2 | 0.0964 | 2.2 | – | – | –
COC(=O)N[C@H](C(=O)N1CCC[C@H]1c1ncc(-c2cc(C)c3c(c2)OC(c2cc4c(s2)CCC4)n2c-3cc3cc(-c4cnc([C@@H]5CCCN5C(=O)[C@@H](NC(=O)OC)C5C[C@@H](C)O[C@@H](C)C5)[nH]4)ccc32)[nH]1)C(C)C (single isomer, unassigned) [Compound 548] | – | – | – | – | – | 0.0658 | 0.0231 | IC50 (HCV replicon 1A; HCV replicon 1A): 7.58 pM; IC50 (HCV replicon 1B; [8]): 9.68 pM; IC50 (HCV replicon 1AQ30D; [9]): 1.4 nM
CCc1ccc(C2Oc3cc(-c4cnc([C@@H]5CCCN5C(=O)[C@@H](NC(=O)OC)C(C)C)[nH]4)cc(F)c3-c3cc4cc(-c5cnc([C@@H]6C[C@@H](F)CN6C(=O)C(NC(=O)OC)C6CCOC(C)(C)C6)[nH]5)ccc4n32)s1 (single isomer, unassigned) [Compound 259] | 0.002 | 0.32 | – | – | 3.1 | – | – | IC50 (HCV replicon 1B; replicon 1B): 3.3 pM; IC50 (HCV replicon 1AQ30D; [6]): 0.31 nM
CCc1ccc(C2Oc3cc(-c4cnc([C@@H]5CCCN5C(=O)C(NC(=O)OC)C5C[C@@H](C)O[C@@H](C)C5)[nH]4)cc(F)c3-c3cc4cc(-c5cnc([C@@H]6CCCN6C(=O)[C@@H](NC(=O)OC)C(C)C)[nH]5)ccc4n32)s1 (single isomer, unassigned) [Compound 156] | 0.005 | 0.005 | 1.8 | 0.019 | 2 | – | – | –
COC(=O)NC(C(=O)N1CCC[C@H]1c1ncc(-c2ccc3c(c2)cc2n3C(c3ccc(C4CC4)s3)Oc3cc(-c4cnc([C@@H]5CCCN5C(=O)[C@@H](NC(=O)OC)C5CCOCC5)[nH]4)cc(F)c3-2)[nH]1)C(C)(C)F (single isomer, unassigned) [Compound 172] | 0.004 | 0.005 | 1.8 | – | 1.5 | – | – | IC50 (HCV replicon 1AQ30D; [6]): 0.018 nM
COC(=O)N[C@H](C(=O)N1CCC[C@H]1c1ncc(-c2ccc3c(c2)OC(c2ccc(C4CC4)s2)n2c-3c(F)c3cc(-c4cnc([C@@H]5C[C@H]6C[C@H]6N5C(=O)[C@@H](NC(=O)OC)C(C)C)[nH]4)ccc32)[nH]1)C(C)C (single isomer, unassigned) [Compound 611] | – | – | – | – | – | 0.0115 | 0.183 | IC50 (HCV replicon 1A; [7]): 1.9 pM; IC50 (HCV replicon 1B; [8]): 1.4 pM; IC50 (HCV replicon 1AQ30D; [5]): 0.443 nM
COC(=O)N[C@H](C(=O)N1CCC[C@H]1c1ncc(-c2ccc3c(c2)OC(c2cc4ccccc4s2)n2c-3cc3cc(-c4cnc([C@@H]5C[C@@H](F)CN5C(=O)[C@@H](NC(=O)OC)C5CCOCC5)[nH]4)ccc32)[nH]1)C1CCOCC1 (single isomer, unassigned) [Compound 813] | – | – | – | – | – | 0.038 | 0.018 | IC50 (HCV replicon 1A; HCV replicon 1A): 43 pM; IC50 (HCV replicon 1B; [8]): 87 pM; IC50 (HCV replicon 1AQ30D; [9]): 1.4 nM
COC(=O)NC(C(=O)N1CCC[C@H]1c1ncc(-c2ccc3c(c2)cc2n3C(c3ccc(F)s3)Oc3cc(-c4cnc([C@@H]5CCCN5C(=O)[C@@H](NC(=O)OC)C(C)C)[nH]4)cc(F)c3-2)[nH]1)C1C[C@@H](C)O[C@@H](C)C1 (single isomer, unassigned) [Compound 348] | 0.0149 | 0.0326 | 2.7 | 0.387 | – | – | – | IC50 (HCV replicon 1A; Hepatitis C virus, replicon 1A): 1.9 pM
COC(=O)N[C@H](C(=O)N1CCC[C@H]1c1ncc(-c2ccc3c(c2)OC(c2ccc(C4CC4)s2)n2c-3c(F)c3cc(-c4cnc([C@@H]5CCCN5C(=O)[C@@H](NC(=O)OC)C(C)C)[nH]4)ccc32)[nH]1)C(C)C (single isomer, unassigned) [Compound 604] | – | – | – | – | – | 0.0318 | 0.0624 | IC50 (HCV replicon 1A; [7]): 1.3 pM; IC50 (HCV replicon 1B; HCV replicon 1B): 1.1 pM; IC50 (HCV replicon 1AQ30D; [9]): 0.704 nM
CCc1ccc(C2Oc3cc(-c4cnc([C@@H]5CCCN5C(=O)C(NC(=O)OC)C5CCOC(C)(C)C5)[nH]4)cc(F)c3-c3cc4cc(-c5cnc([C@@H]6CCCN6C(=O)[C@@H](NC(=O)OC)C(C)C)[nH]5)ccc4n32)s1 (single isomer, unassigned) [Compound 162] | 0.004 | 0.006 | – | – | 2.2 | – | – | IC50 (HCV replicon 1B; replicon 1B): 1.9 pM; IC50 (HCV replicon 1AQ30D; [6]): 0.027 nM
COC(=O)N[C@H](C(=O)N1CCC[C@H]1c1ncc(-c2cc(F)c3c(c2)OC(c2ccc(-c4ccc(N=[N+]=[N-])cc4)s2)n2c-3cc3cc(-c4cnc([C@@H]5CCCN5C(=O)[C@@H](NC(=O)OC)C(C)C)[nH]4)ccc32)[nH]1)C(C)C (mixture of isomers) [Compound 264] | – | – | 4.3 | 0.7 | – | – | – | IC50 (HCV replicon 1AY93H; [10]): 0.029 nM; IC50 (HCV replicon 1A; Hepatitis C virus, replicon 1A): 3.7 pM; IC50 (HCV replicon 2B; [11]): 0.19 nM
COC(=O)NC(C(=O)N1[C@@H]2C[C@@H]2C[C@H]1c1ncc(-c2ccc3c(c2)cc2n3C(c3ccc(CC4CC4)s3)Oc3cc(-c4cnc([C@@H]5CCCN5C(=O)[C@@H](NC(=O)OC)C(C)C)[nH]4)cc(F)c3-2)[nH]1)C1CCOC(C)(C)C1 (single isomer, unassigned) [Compound 419] | – | – | – | – | – | 0.0072 | 0.0132 | IC50 (HCV replicon 1A; HCV replicon 1A): 7.2 pM; IC50 (HCV replicon 1B; HCV replicon 1B): 8.3 pM; IC50 (HCV replicon 1AQ30D; [5]): 0.0916 nM
